The values that follow come from paper PMC4058118, “Impact of Wines and Wine Constituents on Cyclooxygenase-1, Cyclooxygenase-2, and 5-Lipoxygenase Catalytic Activity” (Mediators of Inflammation, 2014).

Assay [1] addresses T1, COX-1 from ram seminal vesicles (Ovis aries, UniProt P05979).
T1 construct: COX-1 from ram seminal vesicles; purchased Sigma-Aldrich (Czech Republic); host or cells: ram seminal vesicles (tissue-derived enzyme)
T1 sequence (P05979 25-600): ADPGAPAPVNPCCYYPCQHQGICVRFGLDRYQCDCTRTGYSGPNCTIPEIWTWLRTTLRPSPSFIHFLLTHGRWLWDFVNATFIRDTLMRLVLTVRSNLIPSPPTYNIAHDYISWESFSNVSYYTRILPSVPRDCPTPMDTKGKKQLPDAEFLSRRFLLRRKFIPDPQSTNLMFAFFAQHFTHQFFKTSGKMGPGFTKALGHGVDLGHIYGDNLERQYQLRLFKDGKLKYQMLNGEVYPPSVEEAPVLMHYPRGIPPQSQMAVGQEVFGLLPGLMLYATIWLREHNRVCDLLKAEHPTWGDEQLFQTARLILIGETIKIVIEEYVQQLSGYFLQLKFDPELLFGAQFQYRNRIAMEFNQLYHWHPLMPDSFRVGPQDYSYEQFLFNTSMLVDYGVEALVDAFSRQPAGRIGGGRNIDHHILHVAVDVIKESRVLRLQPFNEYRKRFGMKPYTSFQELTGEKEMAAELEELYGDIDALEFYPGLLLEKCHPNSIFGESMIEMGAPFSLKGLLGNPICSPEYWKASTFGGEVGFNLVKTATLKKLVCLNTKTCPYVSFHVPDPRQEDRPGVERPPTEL
Put plainly: COX-1 assay (PGE2 formation, ELISA). Type of assay: biochemical. Background: An ELISA detects its analyte on a solid surface through an enzyme-linked reagent.

A further assay concerns the target T2, human recombinant COX-2 (Homo sapiens, UniProt P35354).
T2 construct: purchased Sigma-Aldrich (Czech Republic)
T2 sequence (P35354 18-604): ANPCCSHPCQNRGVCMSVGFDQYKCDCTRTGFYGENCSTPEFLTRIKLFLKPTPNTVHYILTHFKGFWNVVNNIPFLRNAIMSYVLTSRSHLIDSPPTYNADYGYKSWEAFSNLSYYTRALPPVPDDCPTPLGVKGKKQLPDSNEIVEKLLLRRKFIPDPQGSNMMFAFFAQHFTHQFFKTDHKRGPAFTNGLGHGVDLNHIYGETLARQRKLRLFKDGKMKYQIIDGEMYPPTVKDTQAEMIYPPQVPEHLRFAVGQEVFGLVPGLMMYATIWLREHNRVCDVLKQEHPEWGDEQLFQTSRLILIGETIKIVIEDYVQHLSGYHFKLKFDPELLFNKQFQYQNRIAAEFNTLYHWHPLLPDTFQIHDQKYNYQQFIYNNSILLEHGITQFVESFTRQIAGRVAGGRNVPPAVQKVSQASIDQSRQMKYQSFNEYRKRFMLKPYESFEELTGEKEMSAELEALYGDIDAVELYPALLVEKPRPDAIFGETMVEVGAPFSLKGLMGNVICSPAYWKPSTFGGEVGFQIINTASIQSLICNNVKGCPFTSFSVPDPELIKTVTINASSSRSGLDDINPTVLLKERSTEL
Nature of the assay: COX-2 assay (PGE2 formation, ELISA). The class given is biochemical. The note with it: for IC50: read-out: IC50 COX-2 (dash).

For the next assay, the target named is T3, 5-LOX (Homo sapiens, UniProt P09917).
T3 construct: endogenous in cells; host or cells: leukocytes isolated from buffy coat of healthy donors
T3 sequence (P09917 1-674): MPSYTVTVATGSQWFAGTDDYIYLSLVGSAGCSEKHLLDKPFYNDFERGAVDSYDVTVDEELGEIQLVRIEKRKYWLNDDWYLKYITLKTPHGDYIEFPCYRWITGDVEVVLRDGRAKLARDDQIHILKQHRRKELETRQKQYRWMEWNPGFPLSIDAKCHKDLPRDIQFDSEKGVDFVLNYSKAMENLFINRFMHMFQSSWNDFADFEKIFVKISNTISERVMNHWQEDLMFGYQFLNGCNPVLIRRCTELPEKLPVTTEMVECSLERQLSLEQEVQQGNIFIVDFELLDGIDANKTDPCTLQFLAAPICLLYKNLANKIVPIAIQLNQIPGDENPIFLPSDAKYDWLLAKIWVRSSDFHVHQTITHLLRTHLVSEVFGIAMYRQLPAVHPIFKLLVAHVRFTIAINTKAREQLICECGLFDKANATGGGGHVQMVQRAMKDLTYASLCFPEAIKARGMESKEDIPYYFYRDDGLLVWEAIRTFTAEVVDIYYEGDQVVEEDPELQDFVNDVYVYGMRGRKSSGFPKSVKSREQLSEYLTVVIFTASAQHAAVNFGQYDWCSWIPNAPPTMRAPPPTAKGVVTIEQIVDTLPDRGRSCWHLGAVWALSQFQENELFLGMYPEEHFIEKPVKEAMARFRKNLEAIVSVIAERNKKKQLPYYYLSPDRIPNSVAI
Put plainly: 5-LOX assay (LTB4 formation in cells from buffy coat, ELISA). The class given is cell-based.

The test system of the next assay is COX-1. The note with it: cited from earlier work.
Another assay relates to COX-2. The note with it: cited from earlier work.
[2] abbreviates: mean ± SD, read-out: IC50 ± SD COX-1.
Where [3] appears, read: dash = IC50 > 50 μM, read-out: IC50 COX-1 (dash).
[4] abbreviates: mean ± SD, read-out: IC50 ± SD 5-LOX.

Like-named read-outs stand apart in the source and are kept apart here. Where only a bound is given, the exact number is not on record here.

For `Oc1cc(O)c2c(c1)O[C@H](c1ccc(O)c(O)c1)[C@@H](O)C2` [(+)-catechin], the “COX-1 inhibitory activity” value in assay [1] (50 μM concentration) is “inactive”. The “COX-2 inhibitory activity” value at human recombinant COX-2 (50 μM concentration) was “inactive”.

Usually IC50 stands for the concentration needed to halve the response being measured. Take `O=c1c(O)c(-c2ccc(O)cc2)oc2cc(O)cc(O)c12` [Kaempferol, kaempferol]: the figures for the IC50 (in assay [1] (setting [2]); at human recombinant COX-2; on 5-LOX (read-out: IC50 5-LOX (dash))) were 43.8 ± 18.8 µM, greater than 50 µM and greater than 50 µM, respectively.

As to `O=c1cc(-c2ccc(O)c(O)c2)oc2cc(O)cc(O)c12` [Luteolin, luteolin], the IC50 in assay [1] (setting [3]) is greater than 50 µM; on human recombinant COX-2, greater than 50 µM; on 5-LOX (setting [4]), 2.25 ± 1.75 µM.

As for `O=c1c(O)c(-c2cc(O)c(O)c(O)c2)oc2cc(O)cc(O)c12` [Myricetin, myricetin], the results for the IC50 (in assay [1] (setting [3]); on human recombinant COX-2; against 5-LOX) were greater than 50 µM, greater than 50 µM and 4.02 ± 2.37 µM, respectively.

Consider `Oc1cc(O)cc(/C=C/c2ccc(O)c(O)c2)c1` [Piceatannol, piceatannol], for which the IC50 in assay [1] is greater than 50 µM; at human recombinant COX-2, greater than 50 µM; in the assay with COX-1 (ref 5 (Murias et al.)) it was 4.71 µM; in the assay with COX-1 (ref 39 (Gerhäuser et al.)), 81.4 µM; with COX-2 (ref 5 (Murias et al.)), 0.0113 µM; at 5-LOX (setting [4]), 0.76 ± 0.35 µM. In the assay with COX-1 (ref 38 (Lee et al.)), the “inhibition of COX-1” value is “no inhibition”. Moreover, in the assay on COX-2 (ref 38 (Lee et al.)), the “inhibition of COX-2” value is recorded as “no inhibition”.

With `O=c1c(O)c(-c2ccc(O)c(O)c2)oc2cc(O)cc(O)c12` [Quercetin, quercetin], the IC50 in assay [1] (setting [2]) is 43.8 µM; in assay [1] (read-out: IC50 COX-1 (dash)), greater than 50 µM; at human recombinant COX-2, greater than 50 µM.

For the molecule `Oc1ccc(/C=C/c2cc(O)cc(O)c2)cc1` [Resveratrol, trans-resveratrol], the IC50 in assay [1] (setting [2]) is 2.27 ± 1.17 µM; on 5-LOX (read-out: IC50 5-LOX (dash)), greater than 50 µM.
